Assay results: patent publication EP0591583B1, “Benzo (f) quinolinones as 5-alpha-reductase inhibitors” (ELI LILLY AND COMPANY, priority 1992, dated 1994)

The molecules below were run against T1, 5α-reductase (Homo sapiens, UniProt P18405) (assay: 5α-Reductase activity in Hs68 human genital skin fibroblasts (conversion of labeled testosterone, TLC analysis)). Conditions: Hs68, test compound 0.316 µM; Hs68 cells; substrate testosterone 12 µM; incubated four hours.
T1 construct: host or cells: Hs68 human genital skin fibroblasts
T1 sequence (P18405 1-259): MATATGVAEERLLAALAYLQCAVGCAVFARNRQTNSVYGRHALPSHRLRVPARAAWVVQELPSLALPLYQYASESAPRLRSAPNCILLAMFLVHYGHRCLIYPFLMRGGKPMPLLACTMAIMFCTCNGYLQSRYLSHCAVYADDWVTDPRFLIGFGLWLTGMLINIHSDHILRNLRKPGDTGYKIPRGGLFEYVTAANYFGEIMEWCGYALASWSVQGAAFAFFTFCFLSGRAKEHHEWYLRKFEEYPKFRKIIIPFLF
Type: cell-based
Method: Cell Culture: 5α-Reductase activity was measured using Hs68 human genital skin fibroblasts which were originally purchased from the American Type Culture Collection (Rockville, MD). The cells were grown in Dulbecco's Modified Eagle's Medium (DMEM) plus 10% stripped fetal bovine serum which was supplemented with amphotericin B ([…]) and gentamicin ([…]) (GIBCO, Grand Island, NY). The serum was stripped of endogenous steroids by incubation with dextran-coated charcoal prior to its addition to the media. The cells were maintained at 37°C in an atmosphere of 95% air, 5% CO2 and were passaged every 7-10 days by exposure to a trypsin-EDTA solution (0.025% trypsin, 0.265 mM EDTA). Prior to the assay the Hs68 cells were harvested and plated in Falcon 6-well plates (Becton Dickinson Labware, Lincoln Park, NJ) at a density of 6 x 10^4 cells per well. The cells were allowed to grow for 4-5 days or until they reached approximately 80% confluence.
Assay Method I: The substrate was prepared by dissolving unlabeled testosterone (Sigma Chemical Co., St. Louis, MO) in absolute ethanol followed by the addition of [7-^3H (N)]-testosterone (23.3 Ci/mmole, New England Nuclear, Boston, MA). The steroid solution was taken to dryness under a stream of nitrogen and then reconstituted in media.
Assay Method II: The substrate used for this method was [^14C]-testosterone (50 mCi/mmol) (New England Nuclear, Boston, MA). An aliquot of the substrate was taken to dryness under a stream of nitrogen. After the addition of 30 µl of ethanol, the testosterone was dissolved in an appropriate volume of media.
Sample Preparation: The test compounds were brought up in absolute ethanol in order to achieve the desired concentration. Subsequent dilutions of the test compounds with media were performed by the Biomek 1000 Automated Laboratory Workstation (Beckman Instruments, Palo Alto, CA). The existing media in the sample wells was aspirated and replaced with fresh media. Test compound was then added to the wells followed by the addition of 0.5 ml of substrate. The volume of the incubation mixture was maintained at 2.0 ml. The final substrate concentration was 12 µM. The concentration of the test compounds ranged from 0.001-150 µM. An additional three wells (background) containing media and substrate but no cells were also included to account for the non-enzymatic metabolism of the substrate. The plates were returned to the incubator and incubated for four hours.
At the end of the incubation the media was collected and transferred to an extraction tube containing 5 ml of toluene-ethanol (9:1), to which has been added 20-250 µg each of unlabeled carrier steroids (estriol, estradiol, estrone, 5α-androstan-3α,17β-diol, 5α-androstan-3β,17β-diol, 4-androstene-3,17-dione, 5α-androstan-3,17-dione, testosterone, and 5α-dihydrotestosterone) (Steraloids, Inc., Wilton, NH). In the case of Assay Method I the extraction tube also contained 1,000 and 10,000 dpm of [4-^14C]-dihydrotestosterone (50-60 mCi/mmol) and [4-^14C]-testosterone (50 mCi/mmol) (New England Nuclear, Boston, MA), respectively. The [^14C]-steroids were included as recovery standards to quantify procedural losses. A small amount of NaCl was also added to the extraction tubes to prevent foaming. The samples were vortexed for approximately 30 seconds and then centrifuged for 10 minutes at 500 x g. The organic phase was collected and the samples taken to dryness, redissolved in dichloromethane-methanol (9:1) and were analyzed by thin layer chromatography using one of the methods described below.
Chromatography Method I (two-dimensional): The extracted samples were appled to silica gel 60F254, 0.25 mm thick, thin layer chromatography plates (EM Science, Cincinnati, OH). The plates were developed in the first dimension with a solvent system containing dichloromethane-ethyl acetate-methanol-acetic acid (160:38:1.5:0.5, Mallinckrodt Inc., Paris, KY).

SMILES | inhibition at 0.316 µM [%]
CN1C(=O)CC[C@@H]2c3ccc(Cl)cc3CC[C@H]21 [Example 64, (-)-(4aR)-(10bR)-8-chloro-4-methyl-1,2,3,4,4a,5,6, lOb-octahydrobenzo[f]quinolin-3-one] | 91.5

Same assay, conditions: Hs68, test compound 0.316 µM; Hs68 cells; substrate testosterone 12 µM; incubated four hours; read-out: % Inhibition

SMILES | inhibition at 0.316 µM [%]
CN1C(=O)CC[C@@H]2c3cc([N+](=O)[O-])ccc3CC[C@H]21 (racemic) [Example 47, trans-dl-9-nitro-4-methyl-1,2,3,4,4a,5,6,10b-octahydrobenzo[f]quinolin-3-one] | 49.7
CN1C(=O)CC[C@@H]2c3cc(N)ccc3CC[C@H]21 (racemic) [Example 48, trans-dl-9-amino-4-methyl-1,2,3,4,4a,5,6,10b-octahydrobenzo[f]quinolin-3-one] | 4.36
CN1C(=O)CC[C@@H]2c3cc(Cl)ccc3CC[C@H]21 (racemic) [Example 49, trans-dl-9-chloro-4-methyl-1,2,3,4,4a,5,6,10b-octahydrobenzo[f]guinolin-3-one] | 65.7
O=C1C=C[C@@H]2c3ccc(Cl)cc3CC[C@H]2N1 (racemic) [Example 50A, trans-dl-8-chloro-3,4,4a,5,6,10b-hexahydrobenzo[f]quinolin-3-one] | 83.3
O=C1CC=C2c3ccc(Cl)cc3CCC2N1 (racemic) [Example 50B, dl-8-chloro-2,3,4,4a,5,6-hexahydrobenzo[f]quinolin-3-one] | 84
CN1C(=O)CC=C2c3ccc(Cl)cc3CCC21 (racemic) [Example 53, dl-8-chloro-4-methyl-2,3,4,4a,5,6-hexahydrobenzo[f]quinolin-3-one] | 74.8
C[C@@H]1C[C@@H]2c3ccc(Cl)cc3C=C[C@H]2N(C)C1=O (racemic) [Example 54, trans-dl-8-chloro-2-a-methyl-4-methyl-1,2,3,4,4a,10b-hexahydrobenzo[f]quinolin-3-one] | 73.8
CN1C(=O)CC[C@@H]2c3ccc(CCC(=O)NC(C)(C)C)cc3CC[C@H]21 (racemic) [Example 55, trans-dl-8-t-butylaminocarbonylethanediyl-4-methyl-1,2,3,4,4a,5,6,10b-octahydrobenzo[f]quinolin-3-one] | 17.3
CN1C(=O)CC[C@@H]2c3ccc(-c4ccccc4)cc3CC[C@H]21 (racemic) [Example 56, trans-dl-8-phenyl-4-methyl-1,2,3,4,4a,5,6,10b-octahydrobenzo[f]quinolin-3-one] | 74.8
C=Cc1ccc2c(c1)CC[C@@H]1[C@@H]2CCC(=O)N1C (racemic) [Example 57, trans-dl-8-vinyl-4-methyl-1,2,3,4,4a,5,6,10b-octahydrobenzo[f]quinolin-3-one] | 66.6
CCOC(=O)c1ccc2c(c1)CC[C@@H]1[C@@H]2CCC(=O)N1C (racemic) [Example 58, trans-dl-8-ethoxycarbonyl-4-methyl-1,2,3,4,4a,5,6,10b-octahydrobenzo[f]quinolin-3-one] | 65.7
CCN1C(=O)CC[C@@]2(C)c3ccccc3CC[C@H]12 (relative stereo) [Example 42, trans-4-ethyl-10b-methyl-1,2,3,4,4a,5,6,10b-octahydrobenzo[f]quinolin-3-one] | 10.9
CCCCN1C(=O)CC[C@@]2(C)c3ccccc3CC[C@H]12 (relative stereo) [Example 43, trans-4-n-butyl-10b-methyl-1,2,3,4,4a,5,6,10b-octahydrobenzo[f]quinolin-3-one] | 11.9
CN1C(=O)CC[C@]2(C)c3ccc(Cl)cc3CC[C@@H]12 [Example 59, (R) (+)-trans-4-methyl-8-chloro-10b-methyl-1,2,3,4,4a,5,6,10b-octahydrobenzo[f]quinolin-3-one] | 71.9
C[C@]12C=CC(=O)N[C@@H]1CCc1cc(Cl)ccc12 [Example 61, (R) (+)-trans-8-chloro-10b-methyl-3,4,4a,5,6,10b-hexahydrobenzo[f]quinolin-3-one] | 61.5
CN1C(=O)CC[C@H]2c3ccc(Cl)cc3CC[C@@H]21 [Example 65, (+)-(4aS)-(10bS)-8-chloro-4-(methyl)-1,2,3,4,4a,5,6,10b-octahydrobenzo[f]quinolin-3-one] | 95.6

Same assay, conditions: Hs68, test compound 1.00 µM; Hs68 cells; substrate testosterone 12 µM; incubated four hours

SMILES | inhibition at 1 µM [%]
CN1C(=O)CCC2(C)c3ccc(Cl)cc3CCC12 (racemic) [Example 34, trans-dl-8-chloro-4,10b-di-methyl-1,2,3,4,4a,5,6,10b-octahydrobenzo[f]-quinolin-3-one] | 94.2

Same assay, conditions: Hs68, test compound 1.00 µM; Hs68 cells; substrate testosterone 12 µM; incubated four hours; read-out: % Inhibition

SMILES | inhibition at 1 µM [%]
CN1C(=O)CCC2(C)c3ccc(F)cc3CCC12 (racemic) [Example 32, trans-dl-8-fluoro-4,10b-dimethyl-1,2,3,4,4a,5,6,10b-octahydrobenzo[f]quinolin-3-one] | 81.6
C[C@]12CCC(=O)N[C@@H]1CCc1cc(Cl)ccc12 (racemic) [Example 38, trans-dl-8-chloro-10b-methyl-1,2,3,4,4a,5,6,10b-octahydrobenzo[f]quinolin-3-one] | 34
CN1C(=O)C=C[C@@H]2c3ccc(Br)cc3CC[C@H]21 (racemic) [Example 51, trans-dl-8-bromo-4-methyl-3,4,4a,5,6,10b-hexahydrobenzo[f]quinolin-3-one] | 95.1
CN1C(=O)C=C[C@@H]2c3ccc(Cl)cc3CC[C@H]21 (racemic) [Example 52, trans-dl-8-chloro-4-methyl-3,4,4a,5,6,10b-hexahydrobenzo[f]quinolin-3-one] | 71.8

Same assay, conditions: Hs68, test compound 3.16 µM; Hs68 cells; substrate testosterone 12 µM; incubated four hours

SMILES | inhibition at 3.16 µM [%]
CN1C(=O)CC[C@@]2(C)c3ccccc3CC[C@H]12 (stereo in doubt) [Example 45, trans-4-methyl-10b-methyl-1,2,3,4,4a,5,6,10b-octahydrobenzo[f]quinolin-3-one] | 72.2

Same assay, conditions: Hs68, test compound 150.00 µM; Hs68 cells; substrate testosterone 12 µM; incubated four hours

SMILES | inhibition at 150 µM [%]
C[C@]12CCC(=O)N[C@@H]1CCc1ccccc12 (racemic) [Example 36, trans-dl-10b-methyl-1,2,3,4,4a,5,6,10b-octahydrobenzo[f]quinolin-3-one] | 43.9

Same assay, conditions: test compound 0.316 µM; Hs68 cells; substrate testosterone 12 µM; incubated four hours; read-out: % Inhibition

SMILES | inhibition at 0.316 µM [%]
COc1ccc(CN2C(=O)CC[C@]3(C)c4ccc(Cl)cc4CC[C@@H]23)cc1 [Example 44] | 5.7

Same assay, conditions: test compound 1.00 µM; Hs68 cells; substrate testosterone 12 µM; incubated four hours; read-out: % Inhibition

SMILES | inhibition at 1 µM [%]
CN1C(=O)CC[C@]2(C)c3ccccc3CC[C@@H]12 (stereo in doubt) [Example 37, trans-dl-4,10b-dimethyl-1,2,3,4,4a,5,6,10b-octahydrobenzo[f]quinolin-3-one] | 40

Same assay, conditions: test compound 15.00 µM; Hs68 cells; substrate testosterone 12 µM; incubated four hours

SMILES | inhibition at 15 µM [%]
O=C1CC[C@@H]2c3cc([N+](=O)[O-])ccc3CC[C@H]2N1 (racemic) [Example 46, trans-dl-9-nitro-1,2,3,4,4a,5,6,10b-octahydrobenzo[f]quinolin-3-one] | 69.9
